Test results from patent US11485751B2, “Apramycin derivatives” (WAYNE STATE UNIVERSITY, priority 2017, dated 2022).
Converted amounts (≈) assume the structure as drawn.

Experiments:
[1] = tested on: Enterob. AG302 AAC(3)-II AAC(6′)-I rmtC; experiment: Activity against G1405-methylated 16S-rRNA, clinical isolate AG302; assay type: cell-based
From the text: (§1) Minimal inhibitory concentrations (MIC) have been determined by broth microdilution assays (CLSI. Methods for Dilution Antimicrobial Susceptibility Tests for Bacteria That Grow Aerobically; Approved Standard—Tenth Edition. CLSI document M07-A10. Wayne, Pa.: Clinical and Laboratory Standards Institute; 2015.).

[2] = tested on: human mitochondrial ribosomes; experiment: in-vitro translation assay, human mitochondrial (human chimeric) ribosomes; assay type: biochemical
From the text: (§2) IC50 values for bacterial, human chimeric, and rabbit reticulocyte ribosomes have been determined by in-vitro translation assays as described previously (Proc. Nat. Ac. Sci USA 2012, 109(27):10984-10989).
(§3) Minimal inhibitory concentrations (MICs, […]) against clinical isolates from Institute of Medical Microbiology, Univ. Zurich, and the IC50 values for bacterial, human mitochondrial and human cytosolic ribosomes are indicated.

[3] = tested on: Engineered E. coli pH424 armA; experiment: Activity against G1405-methylated 16S-rRNA, E. coli pH424 armA; assay type: cell-based
From the text: as §1

[4] = tested on: AG212, Escherichia coli ATCC25922; experiment: MIC reference strain AG212; assay type: cell-based
From the text: as §1
(§4) Table 4 and 5 show the antibacterial activity of the compounds of the invention against bacterial reference strains (table 4) and against representative clinical isolates (table 5).
(§5) Legend to Tables: GEN, gentamicin; AMK, amikacin; PLZ, plazomicin; APR, apramycin; AG212, Escherichia coli ATCC25922; AG215, Klebsiella pneumonia; AG220, Pseudomonas aeruginosa ATCC27853; AG225, Acinetobacter baumannii pittii; AG290, Enterobacter cloacae; […], Mycobacterium smegmatis. MICs for AG192 have been determined in the presence of 0.5 μg/mL of ampicillin in the medium to mimic the synergistic effect of aminoglycoside and β-lactam antibiotics combination therapy in the treatment of Enterococcus infections in humans.

[5] = tested on: AG225, Acinetobacter baumannii pittii; experiment: MIC reference strain AG225; assay type: cell-based
From the text: as §1, §4, §5

[6] = tested on: E. coli AG153 AAC(3)-II APH(3′)-II rmtB; experiment: Activity against G1405-methylated 16S-rRNA, clinical isolate AG153; assay type: cell-based; parameters: unit not given here
From the text: as §1

ATCC19977 M. abcessus = experiment: MIC reference strain ATCC19977; assay type: cell-based
From the text: as §1, §4

AG031 P. aer. APH(3′)-II = experiment: Antibacterial activity, clinical isolate AG031; assay type: cell-based; parameters: unit not given here
From the text: as §1, §4

isolates carrying apmA = experiment: MIC broth microdilution, apmA; assay type: cell-based; settings: apmA resistance gene
From the text: Minimal inhibitory concentrations (MIC) have been determined by broth microdilution assays (CLSI. Methods for Dilution Antimicrobial Susceptibility Tests for Bacteria That Grow Aerobically; Approved Standard—Tenth Edition. CLSI document M07-A10. Wayne, Pa.: Clinical and Laboratory Standards Institute; 2015.). […]
(§6) Minimal inhibitory concentrations (μg/ml) against clinical isolates from Institute of Medical Microbiology, Univ. Zurich, and the IC50 values for bacterial, human mitochondrial and human cytosolic ribosomes are indicated.
(§7) The Minimal inhibitory concentrations (MICs, μg/ml) against clinical isolates from Institute of Medical Microbiology, Univ Zurich, and the IC50 values for bacterial, human mitochondrial and human cytosolic ribosomes are indicated.

[7] = tested on: K. pneum. AG269 AAC(3)-II AAC(6′)-I rmtB; experiment: Activity against G1405-methylated 16S-rRNA, clinical isolate AG269; assay type: cell-based
From the text: as §1

AG001 E. coli WT = experiment: Antibacterial activity, clinical isolate AG001; assay type: cell-based; parameters: unit not given here
From the text: as §1, §4

[8] = tested on: Engineered E. coli pH430 WT; experiment: Activity, engineered E. coli pH430 WT; assay type: cell-based; parameters: unit not given here; settings: wild type
From the text: as §1

[9] = tested on: human cytosolic ribosomes; experiment: in-vitro translation assay, human cytosolic ribosomes; assay type: biochemical
From the text: as §2, §3

AG173 E. coli AAC(3)-IV = experiment: Antibacterial activity, clinical isolate AG173; assay type: cell-based
From the text: as §1, §4

AG038 MRSA = experiment: Antibacterial activity, clinical isolate AG038; assay type: cell-based; parameters: unit not given here
From the text: as §1, §4

[10] = tested on: AG220, Pseudomonas aeruginosa ATCC27853; experiment: MIC reference strain AG220; assay type: cell-based
From the text: as §1, §4, §5

bacterial ribosomes = experiment: in-vitro translation assay, bacterial ribosomes; assay type: biochemical
From the text: as §2, §3

[11] = tested on: AG215, Klebsiella pneumonia; experiment: MIC reference strain AG215; assay type: cell-based
From the text: as §1, §4, §5

[12] = tested on: A baum. AG227 APH(3′)-I armA; experiment: Activity against G1405-methylated 16S-rRNA, clinical isolate AG227; assay type: cell-based
From the text: as §1

[13] = tested on: SZ380, Mycobacterium smegmatis; experiment: MIC reference strain SZ380; assay type: cell-based; settings: Mycolicibacterium smegmatis, read-out: MIC SZ380 M. smegmatis
From the text: as §1, §4, §5

[14] = tested on: clinical isolates carrying AAC(3)-IV; experiment: MIC broth microdilution, AAC(3)-IV; assay type: cell-based; settings: read-out: MIC AAC(3)-IV
From the text: as §1, §3, §6, §7

[15] = tested on: AG290, Enterobacter cloacae; experiment: MIC reference strain AG290; assay type: cell-based
From the text: as §1, §4, §5

AG003 E. coli AAC(3)-II = experiment: Antibacterial activity, clinical isolate AG003; assay type: cell-based; parameters: unit not given here
From the text: as §1, §4

[16] = tested on: AG042 MRSA AAC(6′)-I ANT(4′)-I APH(2′); experiment: Antibacterial activity, clinical isolate AG042; assay type: cell-based; parameters: unit not given here
From the text: as §1, §4

AG055 E. coli WT = experiment: Antibacterial activity, clinical isolate AG055; assay type: cell-based; parameters: unit not given here
From the text: as §1, §4

[17] = tested on: AG033 P. aer. APH(3′)-II AAC(6′)-I; experiment: Antibacterial activity, clinical isolate AG033; assay type: cell-based; parameters: unit not given here
From the text: as §1, §4

[18] = tested on: Engineered E. coli pH426 rmtC; experiment: Activity against G1405-methylated 16S-rRNA, E. coli pH426 rmtC; assay type: cell-based
From the text: as §1

[19] = tested on: AG039 MRSA AAC(6′)-I ANT(4′)-I; experiment: Antibacterial activity, clinical isolate AG039; assay type: cell-based
From the text: as §1, §4

[20] = tested on: Engineered E. coli pH427 rmtF; experiment: Activity against G1405-methylated 16S-rRNA, E. coli pH427 rmtF; assay type: cell-based
From the text: as §1

AG032 P. aer. APH(3′)-II = experiment: Antibacterial activity, clinical isolate AG032; assay type: cell-based; parameters: unit not given here
From the text: as §1, §4

[21] = tested on: Engineered E. coli pH425 rmtB; experiment: Activity against G1405-methylated 16S-rRNA, E. coli pH425 rmtB; assay type: cell-based
From the text: as §1

CNC1C(O)C2O[C@H](O[C@@H]3C(N)C[C@@H](N)[C@@H](O)[C@H]3OCCCO)C(N)C[C@@H]2O[C@@H]1O[C@H]1OC(CO)[C@@H](N)[C@H](O)C1O (stereo partly shown) [DC207]
Activity Enterob. AG302 AAC(3)-II AAC(6′)-I rmtC [1]: 8-16 | IC50 [2]: > 1000 µM | Activity E. coli pH424 armA [3]: 4 | MIC ([4]; Escherichia coli, ATCC25922, read-out: MIC AG212 E. coli): 16 µg/mL | MIC ([5]; Acinetobacter baumannii, read-out: MIC AG225 A. baumannii): 32 µg/mL | Activity E. coli AG153 AAC(3)-II APH(3′)-II rmtB [6]: 8 | MIC (ATCC19977 M. abcessus; read-out: MIC ATCC19977 M. abcessus): 8 µg/mL (≈ 13.4 µM) | Antibacterial activity AG031 P. aer. APH(3′)-II (AG031 P. aer. APH(3′)-II): 128 | MIC (isolates carrying apmA): > 128 µg/mL | Activity K. pneum. AG269 AAC(3)-II AAC(6′)-I rmtB [7]: 8 | Antibacterial activity AG001 E. coli WT (AG001 E. coli WT): 16 | Activity E. coli pH430 WT [8]: 8 | IC50 [9]: > 1000 µM | Antibacterial activity AG173 E. coli AAC(3)-IV (AG173 E. coli AAC(3)-IV): >128 | Antibacterial activity AG038 MRSA (AG038 MRSA): 32 | MIC ([10]; Pseudomonas aeruginosa, ATCC27853, read-out: MIC AG220 P. aeruginosa): 64 µg/mL | IC50 (bacterial ribosomes): 0.6 µM | MIC ([11]; Klebsiella pneumoniae, read-out: MIC AG215 K. pneumonia): 8 µg/mL | Activity A baum. AG227 APH(3′)-I armA [12]: 16-32 | MIC [13]: 1 µg/mL | MIC [14]: > 128 µg/mL | MIC ([15]; Enterobacter cloacae, read-out: MIC AG290 E. cloacae): 16 µg/mL

gentamicin [reference compound]
Activity Enterob. AG302 AAC(3)-II AAC(6′)-I rmtC [1]: >256 | Activity E. coli pH424 armA [3]: >128 | Antibacterial activity AG003 E. coli AAC(3)-II (AG003 E. coli AAC(3)-II): 32-64 | MIC AG212 E. coli ([4]; reference strain ATCC25922): 0.5 µg/mL | MIC AG225 A. baumannii ([5]; reference strain): 0.5 to 1 µg/mL | Activity E. coli AG153 AAC(3)-II APH(3′)-II rmtB [6]: >256 | Antibacterial activity AG042 MRSA AAC(6′)-I ANT(4′)-I APH(2′) [16]: 64 | MIC ATCC19977 M. abcessus (ATCC19977 M. abcessus; reference strain): 2 to 4 µg/mL | Antibacterial activity AG031 P. aer. APH(3′)-II (AG031 P. aer. APH(3′)-II): 0.5 | Activity K. pneum. AG269 AAC(3)-II AAC(6′)-I rmtB [7]: >256 | Antibacterial activity AG001 E. coli WT (AG001 E. coli WT): 1 | Activity E. coli pH430 WT [8]: 0.25 | Antibacterial activity AG055 E. coli WT (AG055 E. coli WT): 0.5 | Antibacterial activity AG033 P. aer. APH(3′)-II AAC(6′)-I [17]: 16 | Activity E. coli pH426 rmtC [18]: >128 | Antibacterial activity AG038 MRSA (AG038 MRSA): 0.25-0.5 | MIC AG220 P. aeruginosa ([10]; reference strain ATCC27853): 0.5 to 1 µg/mL | Antibacterial activity AG039 MRSA AAC(6′)-I ANT(4′)-I [19]: 0.25-0.5 | Activity E. coli pH427 rmtF [20]: >128 | MIC AG215 K. pneumonia ([11]; reference strain): 0.25 µg/mL | Activity A baum. AG227 APH(3′)-I armA [12]: >256 | Antibacterial activity AG032 P. aer. APH(3′)-II (AG032 P. aer. APH(3′)-II): 0.5 | Activity E. coli pH425 rmtB [21]: >128 | MIC AG290 E. cloacae ([15]; reference strain): 0.25 µg/mL
